Assay results taken from patent publication US7169604B1, “Method for PR-39 peptide mediated selective inhibition of IκBα degradation” (Beth Israel Deaconess Medical Center, priority 1998, dated 2007).
Peptide text beside a SMILES is read from it. * marks the point of attachment. Cbz = O=C(OCc1ccccc1)*

How the values were obtained:
Assay type in all cases: cell-based, human
U937 cells = assay: Proteasome-dependent degradation of total cellular proteins (35S Met pulse-chase); settings: Homo sapiens, U-937, 1 hr chase, chloroquin 45 μM, after 16 hr metabolic labeling, read-out: inhibition of total cell protein degradation
Protocol: Therefore the extent of degradation of long-lived cell proteins before or following exposure was compared to either PR-39 or MG132. The result is given by FIG. 3A.
Exponentially proliferating U937 cells were grown in 10% FBS-RPMI 1640 methionine-free medium supplemented with 200 μCi ^35S Met for 16 hr. Cells were then washed with complete RPMI 1640 medium 3 times and cultured in 10% FBS-RPMI (chase) in the presence of 10 μM of either PR-39 or MG132 or an equal volume of PBS. Chloroquin (45 μM) was added to all cultures to prevent the lysosomal protein degradation. 1 hr later the cells were lysed, and TCA soluble ^35S counts were measured in a liquid scintillation counter (LKB). All experiments were carried out in triplicate and repeated three times. The data are shown as mean±standard deviation.

IκBα [1] = assay: Reversibility of inhibition of IκBα degradation after washout in U937 cells; settings: 10 μM for 45 min, washed, 45 min later TNF-α 1 ng/ml, 10 min
Protocol: In parallel cells were exposed to MG132, a rapidly reversible competitive inhibitor of the proteasome or with lactacystin which covalently and irreversibly modifies the active site threonine residues. The results are shown by FIG. 1F.
U937 cells were pretreated with 100 nM of PR-39, 10 μM of either MG132 or lactacystin (LC) or buffer (Control) for 45 min. These cells were then extensively washed with fresh medium. 45 min later TNF-α (1 ng/ml) was added to medium, and the extent of IκBα degradation was determined 10 min later by Western blotting.

IκBα [2] = assay: TNF-α induced degradation of IκBα in U937 cells; settings: 45 min pretreatment with 10 μM, TNF-α 1 ng/ml, 10 min
Protocol: Tumor necrosis factor (TNF)-α is known to induce rapid degradation of IκBα by the Ub-proteasome pathway.
As shown by FIG. 1E, PR-39 prevents TNF-a induced degradation of IκBα. U937 cells were cultured in 10% FBs-RPMI medium in the absence (−) or presence of TNF-a (1 ng/ml). 10 min following TNF-α addition, the cells were washed and IκBα protein levels assessed by Western blotting.
Note that a […] 45 min of pretreatment with 100 nM of PR-39 or 10 μM of MG132 or lactacystin (LC) prior to addition of blocked TNF-α, blocked cytokine-induced degradation of IκBα expression.

HSP70 = HSP70 expression by Western blotting
NFκB = assay: NFκB-dependent luciferase reporter (pNFκB-Luc) in ECV304 cells; settings: 45 min pretreatment with 10 μM, TNF-α 1 ng/ml
Protocol: The results are presented by FIG. 2A.
The effect of PR-39-mediated inhibition of IκBα degradation on NFκB-dependent transcription was tested in ECV304 cells transiently transfected with pNFκB-Luc reporter vector.

IκBα [3] = assay: IκBα protein levels in ECV304 cells by Western blotting; settings: ECV304 cells, 2 hr, 10 μM
Protocol: For IκBα expression studies, normally proliferating wild type ECV304 cells (ECV) or ECV-PR-39 and ECV-E4 cells were lysed in the loading buffer, subjected to electrophoresis on 10% SDS-PAGE gel and transferred to a PVDF membrane. IκBα expression was then determined by Western blotting with anti-IκBα antibody (Santa Cruz, Inc.). ECV304 cells treated for 2 hr with 10 μM of lactacystin (LC) were used as control.
Western blotting of ECV cell lysate was carried out following 2 hr exposure to buffer (0) or 100 or 50 nM of PR-39. […] Clearly, exposure of wild type ECV304 cells to the synthetic PR-39 peptide led to a dose-dependent increase in IκBα levels.

| Compound | inhibition at 10 µM (U937 cells) [%] | extent of IκBα degradation after washout (IκBα [1]) | TNF-α caused decline of the level of IκBα (IκBα [2]) | HSP70 expression (HSP70; U937 cells, 1 μM, 3 hr exposure) | HSP70 levels (HSP70; cultured ECV304 cells, 10 μM) | TNF-α induced increase in luciferase activity (NFκB) | IκBα levels (IκBα [3]) |
| --- | --- | --- | --- | --- | --- | --- | --- |
| CC(C)C[C@@H](C=O)NC(=O)[C@H](CC(C)C)NC(=O)[C@H](CC(C)C)NC(=O)OCc1ccccc1 [MG132, reference compound] (Cbz-Leu-Leu-Leu-aldehyde) | ~50 | complete disappearance of IκBα protein | markedly reduced | appearance of HSP70 expression | striking increase in HSP70 levels | completely blocked |  |
| CC(=O)N[C@@H](CSC(=O)[C@]1([C@@H](O)C(C)C)NC(=O)[C@H](C)[C@@H]1O)C(=O)O [lactacystin] |  | irreversibly blocked proteasome-mediated degradation of IκBα | markedly reduced |  |  | completely blocked | increased IκBα levels |
